Patent US7144893B2, “4-aryl quinols and analogs thereof as therapeutic agents” (Cancer Research Technology Limited, priority 2001, dated 2006)
≈ marks a conversion by molar mass, not a printed value.

Assays:
[1] = system: 60 human cancer cell lines; assay: cells; assay type: cell-based
Protocol: (§1) Compounds were tested for in vitro activity (48 h drug exposure) across 60 human cancer cell lines through the National Cancer Institute (NCI) Developmental Therapies Screening Program (Boyd et al., 1995).

colon sub-panel = assay: cells; assay type: cell-based; details: Homo sapiens, SW-620, read-out: mean LC50 in colon sub-panel
Protocol: as §1

renal sub-panel = assay: cells; assay type: cell-based; details: Homo sapiens, 60 cell, read-out: mean LC50 in renal sub-panel
Protocol: as §1

RXF 393NL = assay: In vitro propidium iodide cytotoxicity assay; assay type: cell-based, human; details: mean ± S.D.
Protocol: (§2) This assay was performed essentially according to the method described by Dengler et al., 1995. Human tumor cells (see Table 2) were plated in 96 well flat-bottomed microtiter plates (50 μL cell suspension, 1×10^5 or 5×10^4 cells/mL) and additional 50 μL of culture medium were added. After a 24 hr recovery, 50 μL of culture medium containing 50 μg/mL gentamycin was added into the 6 control wells or medium containing the test drug ([…]) was added to the wells. Each drug concentration was plated in triplicate. Following 3-6 days of incubation, depending on cell doubling time, a modified propidium iodide (PI) assay was performed. Culture medium was replaced by fresh medium and 50 μL of an aqueous propidium iodide solution (25 μg/mL) were added to each well. […] The fluorescence signal correlates with the numbers of dead cells. Fluorescence (FU1) was measured using a Millipore Cytofluor 2350 microplate reader (excitation 530 nm, emission 620 nm). Microplates were then kept at -18° C. for 24 hr, yielding a total cell kill. After thawing of the plates and a second fluorescence measurement (FU2), the amount of viable cells was calculated by subtraction of […]). Growth inhibition was expressed as treated/control ×100 (% T/C) (that is, growth inhibition at a given concentration is represented as a percentage of treated cell growth over control cell growth). Inhibiting concentrations (IC) were determined by plotting compound concentration versus cell viability. Mean IC50, IC70, and IC90 values were calculated for each individual cell line.

RXF 631L = assay: In vitro propidium iodide cytotoxicity assay; assay type: cell-based, human; details: mean ± S.D.
Protocol: as §2

RXF 944L = assay: In vitro propidium iodide cytotoxicity assay; assay type: cell-based, human; details: mean ± S.D.
Protocol: as §2

## O=C1C=CC(O)(c2nc3ccccc3s2)C=C1 [Q05, 4-(Benzothiazol-2-yl)-4-hydroxy-2,5-cyclohexadien-1-one]
[1]; Homo sapiens, 60 cell, 48 h, read-out: mean LC50
  CC50: 3390 nM
[1]; Homo sapiens, 60 cell, Table 5
  GI50: 290 nM
[1]; Homo sapiens, mean over NCI 60 cell panel, 48 h drug exposure
  GI50: 230 nM
[1]; NCI analysis
  mean log10GI50: −6.63
[1]; NCI analysis, certain colon and renal cells lines
  log10LC50: < −6.0
Colon sub-panel
  LC50: 1760 nM
Renal sub-panel
  mean LC50: 1570 nM
RXF 393NL; Homo sapiens
  IC50: 0.34 ± 0.03 µg/mL (≈ 1.4 µM)
  IC90: 8.63 ± 5.4 µg/mL (≈ 35.5 µM)
RXF 393NL
  Mean IC70: 0.67 ± 0.09 µg/mL
RXF 631L; Homo sapiens
  IC50: 0.37 µg/mL (≈ 1.52 µM)
  IC90: 0.84 µg/mL (≈ 3.45 µM)
RXF 631L
  Mean IC70: 0.56 N.E. μg/mL
RXF 944L; Homo sapiens
  IC50: 0.265 ± 0.06 µg/mL (≈ 1.09 µM)
  IC90: 0.87 ± 0.09 µg/mL (≈ 3.58 µM)
RXF 944L
  Mean IC70: 0.48 ± 0.08 µg/mL
